Assay results: US6344342B1, “Human G protein coupled lysophosphatidic acid receptor” (SmithKline Beecham Corporation, priority 1997, dated 2002)

Test system: HOFNH30
Test: Ca2+-mobilization FLIPR assay in RBL-2H3 cells stably expressing HOFNH30
Assay type: cell-based, human
Details: several clones of RBL-2H3 cells stably expressing HOFNH30, Fluo 3AM-loaded cells
Source text: One preferred screening method involves co-transfecting HEK-293 cells with a mammalian expression plasmid encoding a G-protein coupled receptor (GPCR), such as HOFNH30, along with a mixture comprised of mammalian expression plasmids cDNAs encoding Gα15 (Wilkie T. M. et al Proc Natl Acad Sci USA 1991 88:10049-10053), Gα16 (Amatruda T. T. et al Proc Natl Acad Sci USA 1991 8:5587-5591, and three chimeric G-proteins refered to as Gqi5, Gqs5, and Gqo5 (Conklin B R et al Nature 1993 363:274-276, Conklin B. R. et al Mol Pharmacol 1996 50:885-890). Following a 24 h incubation the transfected HEK-293 cells are plated into poly-D-lysine coated 96 well black/clear plates (Becton Dickinson, Bedford, Mass.). The cells are assayed on FLIPR (Fluorescent Imaging Plate Reader, Molecular Devices, Sunnyvale, Calif.) for a calcium mobilization response following addition of test ligands. […]
A microtitre plate based Ca2^+-miobilization FLIPR assay (Fluorescent Imaging Plate Reader, Molecular Devices, Sunnyvale, Calif.) was used for the functional identification of the ligand activating RBL-2H3 cells stably expressing HOFNH30. […] After initiation of the assay, fluorescence was read every 1s for 1 min and then every 3 s for the following 1 min.

CCCCCCCC/C=C\CCCCCCCC(=O)OC[C@@H](O)COP(=O)(O)O [LPA, 1-Oleoyl-sn-glycero-3-phosphate]
calcium mobilization response: dose dependent calcium mobilization response
